Here are results for 1 compound from patent US12714696B2, “Low dose fluralaner compositions for protection against parasitic invertebrate pest” (VIRBAC, priority 2019, dated 2026).

One series relates to C. felis fleas. Nature of the series: Efficacy against fleas on dogs, oral 250/35/600 μg/kg study. Particulars: Day 3, following 3 consecutive doses of 250 μg/kg per day. In kind it is in vivo. As for the experimental part: The second objective is to investigate the pharmacodynamics between the fluralaner plasmatic dose and the effectiveness against ticks. • IVP: Investigational Veterinary Product, is pure Fluralaner+DMSO (250 μg/kg on Days 0 to 3 (0.25 mL/kg), then 35 μg/kg on Days 4 to 9 (0.35 mL/kg), then 600 μg/kg on Day 11) • Control product is DMSO (0.25 mL/kg on Days 0 to 3, then 0.35 mL/kg on Days 4 to 9)
Dogs were infested with approximately 50 (±4) viable, adult, unfed R. sanguineus ticks on Days 1, 3, 5, 8, 10, 12, 16, 22, 26 and 30 to assess efficacy. Ticks will be removed and counted on Days 3, 5, 7 (48 hours±2 hours after infestation) and 9, 11, 13, 17, 24, 27, 32 (24 hours±2 hours after infestation). […] Fleas will be removed and counted on Days −5 (+1 day) and 3 (24 hours±2 hours after infestation).
The efficacy against ticks and fleas were calculated for the study groups at each assessment day according to the formulas given below.
Efficacy was calculated as follows: Efficacy (%)=100×(Mc−Mt)/Mc, where: • Mc=Mean number of live ticks (categories 1 to 2) or live fleas on dogs in the negative control group (group 1) at a specific time point. • Mt=Mean number of live ticks (categories 1 to 2) or live fleas on dogs in the IVP group (group 2) • at a specific time point.

A further series relates to R. sanguineus ticks. Briefly: Acaricidal efficacy on dogs, oral 35 μg/kg study. In kind it is in vivo. The settings on record: 48 h after the last of four doses of 35 μg/kg per day. The protocol:
The second objective was to investigate the pharmacodynamics between the fluralaner plasmatic dose and the effectiveness against fleas. • IVP: Investigational Veterinary Product, is pure Fluralaner+DMSO (35 μg/kg on Days 0 to 3 (0.35 mL/kg)) • Control product is DMSO (0.35 mL/kg on Days 0 to 3)
On Days 0, 1, 2 and 3, all dogs assigned to group 2 received the Investigational Veterinary Product. On Days 0 to 3 all dogs in group 1 received the control product at a volume equal to the dogs in group 2. Dogs assigned to group 1 received the control product and served as Placebo controls. The quantity of Investigational Veterinary Product and control product administered was calculated according to the dog's individual body weight measured on Day −1.
Dogs were infested with approximately 100 (±8) viable, adult, C. felis fleas on Day −6 for randomisation purposes and on Days 1, 2 and 3 to assess efficacy. Fleas were removed and counted on Days −5, 2, 3 and 4 (24 hours±2 hours after infestation). Dogs were also infested with approximately 50 (±4) viable, adult, unfed R. sanguineus ticks on Day 4 to assess acaricidal efficacy. Ticks will be removed and counted on Day 5 (24 hours±2 hours after infestation).
The efficacy against ticks and fleas were calculated for the study groups at each assessment day according to the formulas given below. […]

Series [1] can be described thus: Pharmacokinetic profile of Bravecto spot-on after single topical administration on dogs. Particulars: dog, in vivo, topical or ocular, 6250 ug/kg, Bravecto spot-on single topical 6250 μg/kg. As for the experimental part: The objective of the study is to determine the pharmacokinetic profile of the Bravecto spot-on containing fluralaner after a single topical administration on dogs at a dose rate of 6250 μg/kg after feeding. • IVP: Investigational Veterinary Product, is Bravecto spot-on containing fluralaner at a dose rate of 6250 μg/kg (22.3112 μL/kg) on Day 0
Ten dogs were enrolled in the study of which six were included meeting the inclusion criteria. In addition, veterinary examinations (Day −14 and Day −2±one day), general health observations (all days) and weighing of all dogs (Day −2±one day) were performed.
On Day 0, all dogs will receive the IVP at a dose rate of 6250 μg/kg. The quantity of IVP to be administered will be calculated according to the dog's individual body weight. Dogs will be observed hourly (±15 minutes) for four hours after administration on Day 0.
Blood specimens will be collected from all dogs on Days −14 and −7 for clinical chemistry and hematology for inclusion and for pharmacokinetic analysis prior to IVP treatment on Day 0 and on Days 1 (+24 hours), 3 (+72 hours), 5 (+120 hours), 7 (+168 hours), 10 (+240 hours), 14 (+336 hours), 21 (+504 hours), 28 (+672 hours), 35 (+840 hours), 42 (+1008 hours), 49 (+1176 hours), 56 (+1344 hours) and 60 (+1440 hours).
The PK parameters of fluralaner were calculated using a non-compartmental approach.
The following rules were applied for the calculation of the PK parameters: • All the plasma concentrations, validated by the bioanalytical laboratory, were used for the PK analysis. • The actual blood sampling times were used throughout. • Concentrations below the Limit of Quantification (LOQ) value were considered as zero from time zero (pre-dose) up to the time at which the first quantifiable concentration above the LOQ value was observed. Concentrations below the LOQ value between two quantifiable concentrations were considered as missing. Trailing concentrations below the LOQ value were not used in calculations.
Cmax the observed maximum concentration in plasma measured after dosing.
tmax the time at which Cmax was apparent.
λz the terminal rate constant (λz) was estimated by log-linear regression analysis on data points visually assessed, to be on the terminal log-linear phase. For the slope of the terminal elimination phase to be accepted as reliable, the following criteria were used: • the terminal data points were apparently randomly distributed about a single straight line (on visual inspection), • a minimum of three data points, including the last measured data point and excluding Cmax, were available for the regression.
t1/2 the terminal plasma half-life (t1/2) was calculated according to the following equation: […]
AUC0-t the area under the concentration-time curve from time zero (pre-dose) to the time of last quantifiable concentration (t) was calculated using a linear trapezoidal method.
[AUC0-∞=AUC0-t+(Ct/λz)], where Ct was the observed concentration of drug for the last sample on the PK profile in which the drug was detected, and λz was as defined above.
The extrapolated area under the curve, expressed as a percentage of the total area, AUCinf, was also calculated as: Area Extra (%)=(AUC0-∞−AUC0-t)/AUC0-∞*100%.

The conditions of series [2]: cited from earlier work.
For series [3] the following is noted: plasma pK in dogs; fluralaner 56 mg/kg; cited from earlier work.
Another series deals with Rhipicephalus sanguineus. Nature of the series: Efficacy against ticks on dogs, oral 250/35/600 μg/kg study. In kind it is in vivo.

Like-named read-outs stand apart in the source and are kept apart here.

What is called half-life is the time in which the quantity being followed falls by half.

In the series on C. felis fleas, `Cc1cc(C2=NOC(c3cc(Cl)cc(Cl)c3)(C(F)(F)F)C2)ccc1C(=O)NCC(=O)NCC(F)(F)F` (stereo not drawn) [fluralaner, Fluralaner] displayed an efficacy against fleas of 92%. Further, the efficacy against ticks with R. sanguineus ticks was determined as 40.4%. For the same compound, in series [1] (dogs without 86D 6FA, n=5, read-out: fluralaner AUC0-t, Mean), the AUC(0-t) was 181 µg·h/mL. Besides, the Cmax in series [1] (dogs without 86D 6FA, n=5, read-out: fluralaner Cmax, Mean) is 238 ng/mL; in series [1] (dogs, read-out: maximum concentration (Cmax), range), 161 to 353 ng/mL. Besides, the half-life in series [1] (dogs without 86D 6FA, n=5, read-out: fluralaner t½ (terminal half-life), Mean (converted)) was 16.2 days; in series [1] (dogs, read-out: terminal half-life, range) it was 14.2 to 20.4 days. The hepatic clearance entry in series [2] (dogs and cats) was “low hepatic clearance”. Moreover, the “AUC in cats relative to dogs” value in series [2] (topical and iv, 12.5 to 50 mg/kg dogs, 20 to 80 mg/kg cats) is given as “about half the AUC in dogs”. For the same compound, the “interference between fluralaner and ivermectin” value in series [3] is listed as “absence of interference”. Besides, the “live ticks, geometric mean, Group 2” value turned out to be 16.2 in the series with Rhipicephalus sanguineus (Day 23, oral 250/35/600 μg/kg regimen) and 13.3 with Rhipicephalus sanguineus (Day 31, oral 250/35/600 μg/kg regimen).
